Experimental data: patent US20230414546A1, “Combined Therapy Against Cancer” (UNIVERSITAT POLITÈCNICA DE CATALUNYA, priority 2020, published 2023)

How the values were obtained:
[1] = Concentration of reactive species in plasma-treated hydrogel compositions; format: physicochemical; conditions: plasma treatment 180 seconds, concentration in the material
Source text: The RONS concentration is quantified either using the AR/HRP reagent method or the Griess reagent method for H2O2 and NOi, respectively. Also, plastic strips with test paper which allow quantification of H2O2 based on a redox reaction and NOi, also using the Griess reagent may be used when a hydrogel is used and the protein solution causes interferences with the AR/HRP reagent method or the Griess reagent method. These two methods give equivalent results.
A 50/50 blend of 0.5 weight % alginate and 2 weight % gelatin solutions were prepared (final concentration of 0.25% wt alginate and 1% wt gelatin). The mixture of alginate/gelatin was prepared is by vortexing in a ratio 1:1, 2% wt gelatin with 0.5% wt alginate for 2 minutes. Gelatin in powder is mixed with MilliQ water at 37° C. using magnetic stirring for 2 hours to obtain a 2% wt gelatin gel. 0.5% alginate was prepared by mixing alginate powder with MilliQ water using a SpeedMixer™ DAC 150.1 FVZ-K (SpeedMixer™, Germany) at 3500 r.p.m. for 15 min. The 0.25% wt alginate and 1% wt gelatin aqueous mixture was treated with an atmospheric pressure plasma jet kINPen IND® (Neoplas, Germany) operating with Argon to generate plasma. Treatment conditions: 1 Umin gas flow, 10 mm nozzle distance, and 180 seconds treatment. Treatment performed in 200 μL of mixture in a 96-well plate. […]

MG-63 sarcospheres = experiment: Sarcosphere formation (cancer stem cells), MG-63; format: cell-based; conditions: treated at day 3 for 7 days, PTM 5 and 20 min, S3I-201 100 μM
Experimental: (§1) FIGS. 7A-7C. Synergic effect of the combined therapy on sarcosphere number reduction. The (A) MG-63 sarcospheres and (B) 143.6 sarcospheres formed were scored (size […]) and counted. Data represent the number of sarcospheres formed as mean and standard deviation of n=6 independent experiments (*p<0.01; **p<0.001; ****p<0.0001 one-way ANOVA). (C) Concentration of NO2- and H2O2 in micromolar concentration in PTM 5, 10 or 20 min.
(§2) Osteosarcoma cells MG-63 and 143.B were cultured in sarcosphere-forming conditions (Cancer Stem Cell (CSC) isolation standard method) for 3 days and then were incubated for another 7 days in contact with PTM according to the following parameters: Helium flow rate: 1 L/min; Gap between APPJ nozzle and CSC medium surface: 10 mm; Treatment times: between 5 and 20 minutes. The CSC Medium was DMEM/F-12 supplemented with GlutaMAX™ (1X; Gibco™, cat.no 10565018, Carlsbad, CA, USA), B-27 Supplement (1:50; Life Technologies), Heparin (1:1000; Sigma), human bEGF (20 ng/ml), human bFGF (10 ng/ml; GoldBio) and sodium pyruvate. The sarcospheres were treated at day 3 with PTM (5 and 20 min), with S3I-201 (100 μM) or with the combination of both for 7 days more.

143.6 sarcospheres = experiment: Sarcosphere formation (cancer stem cells), 143.B; format: cell-based, human; conditions: 143.6 cells; treated at day 3 for 7 days; PTM 5 and 20 min, S3I-201 100 μM
Experimental: as §1, §2

[2] = test system: human 143B osteosarcoma cells; experiment: Murine orthotopic osteosarcoma model, tumor volume; format: in vivo; conditions: nude mice, tibia; daily para-tumoral 100 μL PTM—20 min; 5 mg/kg S3I-201 orally three times per week; versus control
Experimental: FIG. 8. […] Tumor volume of the different groups at final day (when tumors reach 1000 mm^3) . The one-way ANOVA was performed to determine the statistical significance between control and treated groups.
To investigate the role PTM in combination with S3I-201 in osteosarcoma disease development, we used a murine orthotopic osteosarcoma model in which human 143B osteosarcoma cells are injected into the tibia of immunodeficient mice. All in vivo tumor experiments were performed with female nude mice (NMRI-Foxn1 nu/nu mice from Janvier Labs). For orthotopic primary tumor growth, 50,000 cells were injected into the right tibia of 7 weeks old mice under isoflurane anaesthesia. Mice received a daily para-tumoral injection of 100 μL of PTM—20 min or 5 mg/kg S3I-201 (orally, dissolved in corn oil) three times per week, or a combination of both treatments. In parallel, control group received a daily para-tumoral injection of Ringer's Saline or 200 μL corn oil orally. Primary tumors were detected and quantified by bioluminescent in vivo imaging five days day after cell injection and subsequently once a week until the tumors reached the study endpoint (termination criterion: primary tumor total flux>[…] photons/s). […] The one-way ANOVA was performed to determine the statistical significance between control and treated groups.

osteosarcoma cell lines = conditions: in vitro, cited from earlier work

Row | Compound | H2O2 [1] | NO2− [1] | number / growth of sarcospheres at day 10 (MG-63 sarcospheres) | number / growth of sarcospheres at day 10 (143.6 sarcospheres) | tumor volume at final day [2] | apoptosis (osteosarcoma cell lines; caspase-3 pathway) | cell growth and colony formation (osteosarcoma cell lines)
1 | Water | 10.3 mg/L | 2.6 mg/L | – | – | – | – | –
2 | Cc1ccc(S(=O)(=O)OCC(=O)Nc2ccc(C(=O)O)c(O)c2)cc1 [S3I-201] | – | – | significantly reduced | significantly reduced | display a tumor volume in a similar way that control | apoptosis enhancement via the caspase-3 pathway | significant inhibition of cell growth and colony formation
